Experimental data as given in patent US12077503B2, “Substituted cyclic amides and their use as herbicides” (FMC CORPORATION, priority 2015, dated 2024).
Like-named read-outs stand apart in the source and are kept apart here.

What was measured:
Type in all cases: in vivo
Kochia (Kochia scoparia) [1] = assay: Test A preemergence; conditions: Bassia scoparia, pre-emergence, 240 h, preemergence, 0 to 100 scale where 0 is no effect and 100 is complete control, read-out: Kochia plant response rating; for pest or weed control at 125 g/ha: 125 g ai/ha, approx. 10 d; for pest or weed control at 500 g/ha: 500 g ai/ha
In short: (§1)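 Greenhouse, ~10 d after spray; visual injury vs untreated controls, 0 = no effect, 100 = complete control. Preemergence: directed soil spray over planted seeds. Postemergence: plants 2–10 cm, 1–2 leaf stage. Loam/sand blend. Compound in non-phytotoxic solvent with surfactant.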

[2] = test system: barnyardgrass (Echinochloa crus-galli); assay: Test A preemergence; conditions: Echinochloa crus-galli, pre-emergence, 240 h, preemergence, read-out: Barnyardgrass plant response rating; for pest or weed control at 125 g/ha: 125 g ai/ha, approx. 10 d; for pest or weed control at 500 g/ha: 500 g ai/ha
In short: as §1

[3] = test system: giant foxtail (Setaria faberii); assay: Test A preemergence; conditions: Setaria faberi, pre-emergence, 240 h, preemergence, 0 to 100 scale where 0 is no effect and 100 is complete control, read-out: Foxtail, Giant plant response rating; for pest or weed control at 125 g/ha: 125 g ai/ha, approx. 10 d; for pest or weed control at 500 g/ha: 500 g ai/ha
In short: as §1

[4] = test system: pigweed (Amaranthus retroflexus); assay: Test A preemergence; conditions: Amaranthus retroflexus, pre-emergence, 240 h, preemergence, 0 to 100 scale where 0 is no effect and 100 is complete control, read-out: Pigweed plant response rating; for pest or weed control at 125 g/ha: 125 g ai/ha, approx. 10 d; for pest or weed control at 500 g/ha: 500 g ai/ha
[5] = test system: ragweed (common ragweed, Ambrosia elatior); assay: Test A preemergence; conditions: Ambrosia artemisiifolia, pre-emergence, 240 h, preemergence, 0 to 100 scale where 0 is no effect and 100 is complete control, read-out: Ragweed plant response rating; for pest or weed control at 125 g/ha: 125 g ai/ha, approx. 10 d; for pest or weed control at 500 g/ha: 500 g ai/ha
In short: as §1

[6] = test system: ryegrass, Italian (Italian ryegrass, Lolium multiflorum); assay: Test A preemergence; conditions: Lolium multiflorum, pre-emergence, 240 h, preemergence, 0 to 100 scale where 0 is no effect and 100 is complete control, read-out: Ryegrass, Italian plant response rating; for pest or weed control at 125 g/ha: 125 g ai/ha, approx. 10 d; for pest or weed control at 500 g/ha: 500 g ai/ha
In short: as §1

[7] = test system: Galium (catchweed bedstraw, Galium aparine); assay: Test A postemergence; conditions: Galium, post-emergence, 240 h, postemergence, read-out: Galium plant response rating; for pest or weed control at 125 g/ha: 125 g ai/ha, visual injury on 0 to 100 scale (0 no effect, 100 complete control), approx. 10 d; for pest or weed control at 500 g/ha: 500 g ai/ha, 0 to 100 scale, 0 is no effect, 100 is complete control
In short: as §1

Kochia (Kochia scoparia) [8] = assay: Test A postemergence; conditions: Bassia scoparia, post-emergence, 240 h, postemergence, read-out: Kochia plant response rating; for pest or weed control at 125 g/ha: 125 g ai/ha, visual injury on 0 to 100 scale (0 no effect, 100 complete control), approx. 10 d; for pest or weed control at 500 g/ha: 500 g ai/ha, 0 to 100 scale, 0 is no effect, 100 is complete control
In short: as §1

[9] = test system: ragweed (common ragweed, Ambrosia elatior); assay: Test A postemergence; conditions: Ambrosia artemisiifolia, post-emergence, 240 h, postemergence, read-out: Ragweed plant response rating; for pest or weed control at 125 g/ha: 125 g ai/ha, visual injury on 0 to 100 scale (0 no effect, 100 complete control), approx. 10 d; for pest or weed control at 500 g/ha: 500 g ai/ha, 0 to 100 scale, 0 is no effect, 100 is complete control
In short: as §1

[10] = test system: ryegrass, Italian (Italian ryegrass, Lolium multiflorum); assay: Test A postemergence; conditions: Lolium multiflorum, post-emergence, 240 h, postemergence, read-out: Ryegrass, Italian plant response rating; for pest or weed control at 125 g/ha: 125 g ai/ha, visual injury on 0 to 100 scale (0 no effect, 100 complete control), approx. 10 d; for pest or weed control at 500 g/ha: 500 g ai/ha, 0 to 100 scale, 0 is no effect, 100 is complete control
In short: as §1

[11] = test system: wheat (Triticum aestivum); assay: Test A postemergence; conditions: Triticum aestivum, post-emergence, 240 h, postemergence, read-out: Wheat plant response rating; for plant injury at 125 g/ha: 125 g ai/ha, visual injury on 0 to 100 scale (0 no effect, 100 complete control), approx. 10 d; for plant injury at 500 g/ha: 500 g ai/ha, 0 to 100 scale, 0 is no effect, 100 is complete control
In short: as §1

[12] = test system: barnyardgrass (Echinochloa crus-galli); assay: Test B flooded paddy test; conditions: Echinochloa crus-galli, 250 g ai/ha, Flood; 0 to 100 scale where 0 is no effect and 100 is complete control; read-out: Barnyardgrass plant response rating
In short: (§2)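 Greenhouse paddy pots with 2-leaf stage plants received compound by direct addition to floodwater 3 cm deep, kept at that level. Scored visually at 13–15 d versus controls (0 no effect; 100 complete control).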

[13] = test system: ducksalad (Heteranthera limosa); assay: Test B flooded paddy test; conditions: Heteranthera limosa, 250 g ai/ha, Flood; 0 to 100 scale where 0 is no effect and 100 is complete control; read-out: Ducksalad plant response rating
In short: as §2

rice (Oryra sativa) = assay: Test B flooded paddy test; conditions: Oryza sativa, 250 g ai/ha, Flood; 0 to 100 scale where 0 is no effect and 100 is complete control; read-out: Rice plant response rating
In short: as §2

[14] = test system: sedge, umbrella (small-flower umbrella sedge, Cyperus difformis); assay: Test B flooded paddy test; conditions: Cyperus difformis, 250 g ai/ha, Flood; 0 to 100 scale where 0 is no effect and 100 is complete control; read-out: Sedge, Umbrella plant response rating
In short: as §2

[15] = 0 to 100 scale where 0 is no effect and 100 is complete control
[16] = visual injury rating about 10 d after treatment, 0 to 100 scale (0 no effect, 100 complete control)

Structure (SMILES) | pest or weed control at 125 g/ha (Kochia (Kochia scoparia) [1]) [%] | pest or weed control at 500 g/ha (Kochia (Kochia scoparia) [1]) [%] | pest or weed control at 125 g/ha [2, 15] [%] | pest or weed control at 125 g/ha [3] [%] | pest or weed control at 500 g/ha [3] [%] | pest or weed control at 125 g/ha [4] [%] | pest or weed control at 500 g/ha [4] [%] | pest or weed control at 125 g/ha [5] [%] | pest or weed control at 500 g/ha [5] [%] | pest or weed control at 125 g/ha [6] [%] | pest or weed control at 500 g/ha [6] [%] | pest or weed control at 125 g/ha [7] [%] | pest or weed control at 500 g/ha [7] [%] | pest or weed control at 125 g/ha (Kochia (Kochia scoparia) [8]) [%] | pest or weed control at 500 g/ha (Kochia (Kochia scoparia) [8]) [%] | pest or weed control at 125 g/ha [9] [%] | pest or weed control at 500 g/ha [9] [%] | pest or weed control at 125 g/ha [10] [%] | pest or weed control at 500 g/ha [10] [%] | plant injury at 125 g/ha [11] [%] | also measured
O=C1NC[C@H](c2csc(C(F)F)c2)[C@H]1C(=O)Nc1cccc(F)c1F [Compound 1119] | 70 | 80 | 90 | 50 | 80 | 0 | 30 | 70 | 70 | 20 | 30 | 40 | 50 | 40 | 60 | 20 | 60 | 30 | 30 | 20 | pest or weed control at 500 g/ha [2, 16]: 90%; plant injury at 500 g/ha [11]: 50%; pest or weed control at 250 g/ha [12]: 60%; pest or weed control at 250 g/ha [13]: 100%; pest or weed control at 250 g/ha (rice (Oryra sativa)): 20%; pest or weed control at 250 g/ha [14]: 50%
CN1C[C@H](c2cc(C(F)F)cs2)[C@@H](C(=O)Nc2cccc(F)c2F)C1=O [Compound 1121] | 80 | 100 | 90 | 90 | 100 | 0 | 50 | 50 | 100 | 50 | 60 | 50 | 60 | 50 | 70 | 20 | 40 | 40 | 70 | 30 | pest or weed control at 500 g/ha [2, 16]: 100%; plant injury at 500 g/ha [11]: 60%; pest or weed control at 250 g/ha [12]: 70%; pest or weed control at 250 g/ha [13]: 100%; pest or weed control at 250 g/ha (rice (Oryra sativa)): 10%; pest or weed control at 250 g/ha [14]: 0%
CCc1cc(CC)cc([C@H]2CNC(=O)[C@@H]2C(=O)Nc2cccc(F)c2F)c1 [Compound 1139] | 30 | 60 | 90 | 90 | 90 | 0 | 0 | 50 | 50 | 30 | 70 | 50 | 60 | 0 | 0 | 0 | 40 | 40 | 50 | 50 | pest or weed control at 500 g/ha [2, 15]: 90%; plant injury at 500 g/ha [11]: 70%; pest or weed control at 250 g/ha [12]: 0%; pest or weed control at 250 g/ha [13]: 30%; pest or weed control at 250 g/ha (rice (Oryra sativa)): 20%; pest or weed control at 250 g/ha [14]: 0%
Cc1c(F)cccc1NC(=O)[C@H]1C(=O)N(C)C[C@@H]1c1cc(F)cc(F)c1 [Compound 1140] | 80 | 80 | 90 | 100 | 100 | 0 | 40 | 30 | 60 | 30 | 40 | 40 | 50 | 0 | 40 | 0 | 30 | 50 | 70 | 30 | pest or weed control at 500 g/ha [2, 15]: 100%; plant injury at 500 g/ha [11]: 70%; pest or weed control at 250 g/ha [12]: 75%; pest or weed control at 250 g/ha [13]: 100%; pest or weed control at 250 g/ha (rice (Oryra sativa)): 0%; pest or weed control at 250 g/ha [14]: 0%
